Data from patent US11969506B2, “Lipid nanoparticle formulation” (ModernaTX, Inc., priority 2017, dated 2024).

Assays:
HeLa cells [1] = experiment: Luciferase activity in HeLa cells transfected with mRNA-lipoplexes in the presence of bioactive lipids (FIGS. 9A-9C, 9F); format: cell-based
Experimental: FIG. 9A is a graph illustrating luciferase activity in HeLa cells transfected with mRNA-lipoplexes at a dose of 50 ng mRNA in the presence of bioactive lipids (black) normalized to mRNA-lipoplex only control (red), which was set at 100%. Data represented as mean±SEM; n=3. […] FIG. 9B is a graph illustrating luciferase activity in HeLa cells transfected with mRNA-lipoplexes at a dose of 50 ng mRNA in the presence of varying concentrations of MK-571 (blue) relative to mRNA-lipoplex only control (red). Data represented as mean±SD; n=3. […] FIG. 9C is a graph illustrating luciferase activity in HeLa cells transfected with mRNA-lipoplexes at a dose of 50 ng mRNA in the presence of varying concentrations of Arachidonic Acid (blue) relative to mRNA-lipoplex only control (red). Data represented as mean±SD; n=3. […] FIG. 9F is a graph illustrating luciferase activity in HeLa cells transfected with mRNA-lipoplexes at a dose of 50 ng mRNA in the presence of varying concentrations of MK-571 or its analogues, Montelukast, Pranlukast, and Zafirlukast relative to mRNA-lipoplex only control. Data represented as mean±SD; n=3.

HeLa cells [2] = experiment: Luciferase activity in HeLa cells transfected using LNPs with MK-571 (FIGS. 9D, 9E); format: cell-based; conditions: 24 hr pre-incubation with MK-571 (5 μM), increasing doses of mRNA
Experimental: FIG. 9D is a graph illustrating luciferase activity at increasing doses of mRNA in HeLa cells transfected using LNPs, with and without 24 hr pre-incubation with MK-571 (5 μM). Data represented as mean±SD; n=3.
FIG. 9E is a graph illustrating luciferase activity at increasing doses of mRNA in HeLa cells transfected using LNPs and MK-571 loaded LNPs. Data represented as mean±SD; n=3.

Row | SMILES | protein expression relative to mRNA-lipoplex only control (HeLa cells [1]; 50 ng mRNA, concentration of 5 μM) | enhancement of protein expression over the control (HeLa cells [1]; mRNA-lipoplexes 50 ng mRNA, lipoplex only control set at 100%) | transfection (luciferase activity) using LNPs (HeLa cells [2]) | luciferase activity (protein expression) relative to mRNA-lipoplex only control (HeLa cells [1]; 50 ng mRNA, varying concentrations)
1 | CN(C)C(=O)CCSC(SCCC(=O)O)c1cccc(/C=C/c2ccc3ccc(Cl)cc3n2)c1 (stereo not shown) [MK-571] | doubling the protein expression | approximately 40% | able to enhance transfection at all doses of mRNA | –
2 | CCCCC/C=C\C/C=C\C/C=C\C/C=C\CCCC(=O)O [Arachidonic Acid] | – | – | – | failed to elicit improvement in protein expression
